Measurements from patent US10597388B2, “Pyridazinone herbicides” (FMC CORPORATION, priority 2014, dated 2020).

Tests used:
Assay in all cases: Test D controlled growth environment herbicide test, pre- and postemergence
Format in all cases: in vivo
[1] = test system: pigweed (Amaranthus retroflexus)
Method in brief: (§1)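 Species sown in silt loam and sprayed preemergence, or grown in peat-based medium to 2–18 cm (1- to 4-leaf stage) and sprayed postemergence, with compounds in non-phytotoxic solvent plus surfactant. Visual injury scored versus controls after 14–21 d in a controlled environment, 0 (no effect) to 100 (complete control).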

[2] = test system: ryegrass, Italian (Italian ryegrass, Lolium multiflorum)
Method in brief: as §1

[3] = test system: blackgrass (Alopecurus myosuroides)
Method in brief: as §1

[4] = test system: barley, winter (winter barley, Hordeum vulgare)
Method in brief: as §1

[5] = test system: windgrass (Apera spica-venti)
Method in brief: as §1

[6] = test system: galium (catchweed bedstraw, Galium aparine)
Method in brief: as §1

[7] = test system: wheat, winter (winter wheat, Triticum aestivum)
Method in brief: as §1

[8] = test system: deadnettle (henbit deadnettle, Lamium amplexicaule)
Method in brief: as §1

[9] = test system: speedwell (bird's-eye speedwell, Veronica persica)
Method in brief: as §1

[10] = test system: chickweed (common chickweed, Stellaria media)
Method in brief: as §1

kochia (Kochia scoparia) = test system: kochia (Kochia scoparia)
Method in brief: as §1

[11] = test system: lambsquarters (Chenopodium album)
Method in brief: as §1

[12] = test system: foxtail, green (green foxtail, Setaria viridis)
Method in brief: as §1

[13] = Postemergence, 31 g ai/ha, scale 0 to 100 (0 no effect, 100 complete control)
[14] = Postemergence, 125 g ai/ha, visual rating on scale 0 (no effect) to 100 (complete control), 14 to 21 d
[15] = Postemergence, 250 g ai/ha, scale 0 to 100 (0 no effect, 100 complete control)
[16] = Preemergence, 125 g ai/ha, scale 0 to 100 (0 no effect, 100 complete control)
[17] = Preemergence, 250 g ai/ha, scale 0 to 100 (0 no effect, 100 complete control)
[18] = postemergence, 62 g ai/ha, scale 0 to 100, 0 no effect, 100 complete control
[19] = Preemergence, 62 g ai/ha, scale 0 to 100 (0 no effect, 100 complete control)

CCC(=O)Oc1c(C)nn(C)c(=O)c1-c1c(C)sc2ccc(Cl)cc12 [Compound 109]
Pigweed plant response rating [1, 13]: 85
Plant response rating, Pigweed [1, 14]: 100
Plant response rating, Pigweed [1, 15]: 100
Plant response rating (scale of 0 to 100), Pigweed ([1]; Preemergence, 31 g ai/ha): 100
Plant response rating (scale of 0 to 100), Pigweed ([1]; Preemergence, 62 g ai/ha): 100
Plant response rating, Pigweed [1, 16]: 100
Plant response rating, Pigweed [1, 17]: 100
Plant response rating, Pigweed [1, 18]: 85
Ryegrass, Italian plant response rating [2, 13]: 85
Plant response rating, Ryegrass, Italian [2, 14]: 95
Plant response rating, Ryegrass, Italian [2, 15]: 100
Plant response rating (scale of 0 to 100), Ryegrass, Italian ([2]; Preemergence, 31 g ai/ha): 80
Plant response rating (scale of 0 to 100), Ryegrass, Italian ([2]; Preemergence, 62 g ai/ha): 95
Plant response rating, Ryegrass, Italian [2, 16]: 100
Plant response rating, Ryegrass, Italian [2, 17]: 100
Plant response rating, Ryegrass, Italian [2, 18]: 85
Blackgrass plant response rating [3, 13]: 20
Plant response rating, Blackgrass [3, 14]: 65
Plant response rating, Blackgrass [3, 15]: 75
Plant response rating (scale of 0 to 100), Blackgrass ([3]; Preemergence, 31 g ai/ha): 25
Plant response rating, Blackgrass [3, 19]: 25
Plant response rating, Blackgrass [3, 16]: 75
Plant response rating, Blackgrass [3, 17]: 80
Plant response rating, Blackgrass [3, 18]: 30
Barley, Winter plant response rating [4, 13]: 5
Plant response rating, Barley, Winter [4, 14]: 5
Plant response rating, Barley, Winter [4, 15]: 20
Plant response rating (scale of 0 to 100), Barley, Winter ([4]; Preemergence, 31 g ai/ha): 0
Plant response rating, Barley, Winter [4, 19]: 0
Plant response rating, Barley, Winter [4, 16]: 0
Plant response rating, Barley, Winter [4, 17]: 10
Plant response rating, Barley, Winter [4, 18]: 0
Windgrass plant response rating [5, 13]: 60
Plant response rating, Windgrass [5, 14]: 80
Plant response rating, Windgrass [5, 15]: 90
Plant response rating (scale of 0 to 100), Windgrass ([5]; Preemergence, 31 g ai/ha): 55
Plant response rating (scale of 0 to 100), Windgrass ([5]; Preemergence, 62 g ai/ha): 60
Plant response rating, Windgrass [5, 16]: 80
Plant response rating, Windgrass [5, 17]: 100
Plant response rating, Windgrass [5, 18]: 65
Galium plant response rating [6, 13]: 100
Plant response rating, Galium [6, 14]: 100
Plant response rating, Galium [6, 15]: 100
Plant response rating (scale of 0 to 100), Galium ([6]; Preemergence, 31 g ai/ha): 40
Plant response rating (scale of 0 to 100), Galium ([6]; Preemergence, 62 g ai/ha): 75
Plant response rating, Galium [6, 16]: 100
Plant response rating, Galium [6, 17]: 100
Plant response rating, Galium [6, 18]: 100
Wheat, Winter plant response rating [7, 13]: 10
Plant response rating, Wheat, Winter [7, 14]: 25
Plant response rating, Wheat, Winter [7, 15]: 35
Plant response rating (scale of 0 to 100), Wheat, Winter ([7]; Preemergence, 31 g ai/ha): 0
Plant response rating (scale of 0 to 100), Wheat, Winter ([7]; Preemergence, 62 g ai/ha): 0
Plant response rating, Wheat, Winter [7, 16]: 5
Plant response rating, Wheat, Winter [7, 17]: 20
Plant response rating, Wheat, Winter [7, 18]: 15
Deadnettle plant response rating [8, 13]: 20
Plant response rating, Deadnettle [8, 14]: 70
Plant response rating, Deadnettle [8, 15]: 95
Plant response rating (scale of 0 to 100), Deadnettle ([8]; Preemergence, 31 g ai/ha): 0
Plant response rating (scale of 0 to 100), Deadnettle ([8]; Preemergence, 62 g ai/ha): 60
Plant response rating, Deadnettle [8, 16]: 80
Plant response rating, Deadnettle [8, 17]: 95
Plant response rating, Deadnettle [8, 18]: 50
Speedwell plant response rating [9, 13]: 50
Plant response rating, Speedwell [9, 14]: 75
Plant response rating, Speedwell [9, 15]: 100
Plant response rating, Speedwell [9, 18]: 60
Chickweed plant response rating [10, 13]: 100
Plant response rating, Chickweed [10, 14]: 100
Plant response rating, Chickweed [10, 15]: 100
Plant response rating (scale of 0 to 100), Chickweed ([10]; Preemergence, 31 g ai/ha): 100
Plant response rating (scale of 0 to 100), Chickweed ([10]; Preemergence, 62 g ai/ha): 100
Plant response rating, Chickweed [10, 16]: 100
Plant response rating, Chickweed [10, 17]: 100
Plant response rating, Chickweed [10, 18]: 100
Kochia plant response rating (kochia (Kochia scoparia); [13]): 95
Plant response rating, Kochia (kochia (Kochia scoparia); [14]): 100
Plant response rating, Kochia (kochia (Kochia scoparia); [15]): 100
Plant response rating (scale of 0 to 100), Kochia (kochia (Kochia scoparia); Preemergence, 31 g ai/ha): 20
Plant response rating (scale of 0 to 100), Kochia (kochia (Kochia scoparia); Preemergence, 62 g ai/ha): 70
Plant response rating, Kochia (kochia (Kochia scoparia); [16]): 80
Plant response rating, Kochia (kochia (Kochia scoparia); [17]): 100
Plant response rating, Kochia (kochia (Kochia scoparia); [18]): 100
Lambsquarters plant response rating [11, 13]: 90
Plant response rating, Lambsquarters [11, 14]: 95
Plant response rating, Lambsquarters [11, 15]: 100
Plant response rating (scale of 0 to 100), Lambsquarters ([11]; Preemergence, 31 g ai/ha): 95
Plant response rating (scale of 0 to 100), Lambsquarters ([11]; Preemergence, 62 g ai/ha): 100
Plant response rating, Lambsquarters [11, 16]: 100
Plant response rating, Lambsquarters [11, 17]: 100
Plant response rating, Lambsquarters [11, 18]: 95
Foxtail, Green plant response rating [12, 13]: 55
Plant response rating, Foxtail, Green [12, 14]: 75
Plant response rating, Foxtail, Green [12, 15]: 85
Plant response rating (scale of 0 to 100), Foxtail, Green ([12]; Preemergence, 31 g ai/ha): 0
Plant response rating (scale of 0 to 100), Foxtail, Green ([12]; Preemergence, 62 g ai/ha): 65
Plant response rating, Foxtail, Green [12, 16]: 75
Plant response rating, Foxtail, Green [12, 17]: 95
Plant response rating, Foxtail, Green [12, 18]: 65
